Ends that are not written are not given here.
Tests used:
Type in all cases: cell-based, human
HNF1b = experiment: HD-DoE perturbation matrix on iPSC line CR01, optimization of HNF1b activation (MODDE modelling)
Description: (§1) FIG. 2 Optimization of HNF1B from the iPSC-line CR01. A culture of the iPSC cell line Cr01 was exposed to an HD-DoE perturbation matrix composed of compounds regulating the BMP, retinoid, TGF-β and FGF pathways. Pathways previously shown to be involved in the differentiation of dorsal foregut endoderm were utilized in this analysis. MODDE software was used to predict the optimal condition for maximizing HNF1b activation. Predicted factor additives for this optimization and the relative expression under these conditions for the genes measured are shown.
(§2) To assay the efficacy of a potentially clinical grade iPSC line the NCRM1 cell line was chosen. An HD-DoE based optimization was used to validate the HNF1b and FOXA2 optimizers for this cell line. The HD-DOE method was applied with the intent to find conditions for induction of endoderm-expressed genes, directly from the pluripotent stem cell state. This example utilizes a method previously described by Bukys et al. (2020) Iscience 23:101346. The method employs computerized design geometries to simultaneously test multiple process inputs and offers mathematical modeling of a deep effector/response space. The method allows for finding combinatorial signaling inputs that control a complex process, such as dauring cell differentiation. It allows testing of multiple plausible critical process parameters, as such parameters impact output responses, such as gene expression. Because gene expression provides hallmark features of the phenotype of, for example, a human cell, the method can be applied to identify, and understand, which signaling pathways control cell fate.
(§3) To develop a cell culture recipe for each stage, the impact of agonists and antagonists of multiple signaling pathways (herein called effectors) on the expression of pre-selected genes was tested and modeled. The impact of each effector on gene expression level is defined by a parameter called factor contribution that is calculated for each effector during the modeling. These effectors are small molecules or proteins that are commonly used during stepwise differentiation of stem cells to specific fates. Choice of the effectors were based on current literature on differentiation of stem cells to endoderm progenitors.
(§4) In both optimizations, it was shown that BMP pathway inhibition was the most crucial component of the optimization with factor contribution factors of 31.26 and 31.11 for LDN193189 in both the optimization of HNF1b (FIG. 2) and FOXA2 (FIG. 3), respectively. While MEK pathway inhibition with PD0325901 was critical for both HNF1b and FOXA2 optimization (factor contributions of 15.01 and 29.01, respectively), FOXA2 activation was more dependent on MEK inhibition. The other two pathways that were determined to be crucial for controlling DFE activation were retinoid signaling and TGF-β pathway inhibition. These two pathways had differential effects on FOXA2 and HNF1b.

FOXA2 [1] = experiment: HD-DoE perturbation matrix on iPSC line CR01, optimization of FOXA2 activation (MODDE modelling)
Description: as §1, with “FIG. 3” for “FIG. 2”, “of FOXA2” for “of HNF1B”, “foregut endoderm.” for “foregut endoderm were utilized in this analysis.”, “maximizing FOXA2” for “maximizing HNF1b”, “for all” for “for the”
as §2, §3, §4

FOXA2 [2] = experiment: Immunohistochemical staining of iPSC (CR01) cultures after three days in additive combinations; settings: added to RA and LDN, FIG. 9
Description: FIG. 9 Achieving optimal FOXA2 expression. IPSC (CR01) cultures were exposed to media containing different combination of the additive retinoic acid, LDN193189, A8301 and/or PD0325 as indicated on the left side of the stainings. After three days, cultures were fixed and subjected to immunohistochemical staining for the protein antigens of FOXA2 and HNF1b.

INS = experiment: HD-DoE screening for optimal de novo beta cell induction (stage 3 cultures, 3 day perturbation), INS induction
Description: FIG. 18 HD-DoE screening for optimal de novo beta cell induction. Culture of the iPSC cell line CR01 were differentiated to a DFE state for 3 days. These cultures were then incubated in the presence of stage 2 media for an additional 3 days. These cultures were then incubated for an additional 5 days in the presence of GSI-XX and A8301 followed by a 3 day incubation in the presence of a perturbation matrix composed of the compounds indicated in the different panels. This was performed 3 separate times (once for each of the 3 panels). These HD-DoE experiments were then analyzed using MODDE software for maximal induction of insulin. The predicted results are shown.
FIG. 20 HD-DoE screening for optimal de novo beta cell induction. Cultures of the iPSC cell line CR01 were differentiated to a DFE state for 3 days. These cultures were then incubated in the presence of stage 2 media for an additional 3 days. These cultures were then incubated for an additional 5 days in the presence of GSI-XX and A8301 followed by a 3 day incubation in the presence of a perturbation matrix composed of the compounds indicated in the different panels. This was performed 4 separate times (once for each of the 4 panels). These HD-DoE experiments were then analyzed using MODDE software for the maximal induction of Insulin. The predicted results are shown.
(§5) FIGS. 22-25. Dynamic profiling of endocrine sub-type regulation. One of the HD-DoE experiments shown in Example 19 was analyzed using MODDE software and dynamic profiling of the endocrine products GCG, SST and INS are shown.
To define factors contributing to the activation of INS, a series of HD-DoE perturbations were performed using factors chosen to target different aspects of beta cell biology.
To define factors contributing to the activation of INS, a series HD-DoE perturbations were performed using factors chosen to target different aspects of beta cell biology.

PDX1 = experiment: HD-DoE perturbation matrix on DFE culture, modelling for maximal PDX1 induction
Description: FIG. 11 Modelling for maximal PDX1 induction. Cultures of the iPSC cell line Cr01 was differentiated to a DFE state and then subjected to an HD-DoE perturbation matrix composed of the compounds indicated in the figure. MODDE software was used to predict the optimal condition for maximizing PDX1 activation. Predicted factor additives for this optimization and the relative expression under these conditions for the genes measured are shown.
FIG. 12 Coefficient plots show main effectors for pancreatic progenitor generation from a DFE precursor. Coefficients for the HD-DoE design shown in Example 9 are shown for PDX1 and PTF1A. The co-expression of these two genes is indicative of a pancreatic field.
To determine the best way for inducing a pancreatic fate from a DFE progenitor, a subsequent HD-DoE analysis was performed. Exposing a DFE culture to a perturbation matrix composed of all previously identified effectors shown to have a positive effect on PDX1 activation was used to define optimal conditions for PDX1 induction.

INS (beta cell marker) = experiment: HD-DoE on DFE culture, dynamic profiling of endocrine sub-type markers: INS; settings: PDX1 optimizer, dynamic profiling FIG. 14
Description: FIG. 14 Dynamic profiling exploring endocrine cell sub-types. IPSC cultures were differentiated to DFE cultures and then subjected a HD-DoE matrix as outlined in Example 10. MODDE software was used to display the dynamic profiles of GCG, INS and SST, which provide a representable characterization of the different pancreatic endocrine subtypes corresponding to alpha, beta, and delta cells, respectively.

[3] = tested on: GCG, SST, PDX1, PAX4, MAFA and NKX2.2; experiment: HD-DoE stage 3 screening, heat map and dynamic profiling of endocrine and beta cell genes; settings: heat maps FIG. 19 and FIG. 21
Description: FIG. 19 Heat map showing descending factor contributions for the induction of INS. The three HD-DoE experiments shown in Example 17 were used for modeling the maximal expression of several other genes, including GCG, SST, PDX1, PAX4, MAFA and NKX2.2, which are indicative of endocrine cell types with a focus on pancreatic beta cells as indicated at the top of the heat map. The relative factor contributions for the activation of these different genes were then used to generate a secondary heat map representative of the gene induction logic and then ranked according to the compound's ability to induce INS. Dark blue colors indicate a high inductive capacity, while dark red colors indicative of a highly repressive capacity for activation of the genes are shown.
FIG. 21 Heat map showing descending factor contributions for the induction of INS. The four HD-DoE experiments shown in Example 19 were used for modeling the maximal expression of several other genes. These genes were GCG, SST, PDX1, PAX4, MAFA and NKX2.2. These genes are all indicative of endocrine cell types with a focus on the beta cell as indicated at the top of the heatmap. The relative factor contribution for the activation of these different genes were then used to generate a secondary heat map representative of these genes induction logic and then ranked order according to the compounds ability to induce INS. Dark blue indicates high inductive capacity, while dark red is indicative of a highly repressive effect for the activation of the genes shown.
as §5
To ascertain which factors could potentially favor the beta cell over other endocrine cell types, optimizers for markers of the other endocrine cell types and beta cell specific markers were compared. The relative factor contribution from the different optimizers were compared.
Optimizers for the main pancreatic endocrine hormones and beta cell-specific transcription factors were generated to compare their contribution factors for this series of HD-DoE. Compounds that could selectively favor the differentiation of the beta cell over that of the alpha and delta cells were identified in this manner.

de novo beta cells = experiment: Immunohistochemical validation of de novo beta cells, day 16 culture (PDX1, C-peptide); settings: added to stage 3 media, FIG. 26
Description: FIG. 26 Immunohistochemical validation of the generation of the de novo beta cells. Cultures of the iPSC cell line CR01 was differentiated to a DFE state for 3 days. These cultures were then incubated in the presence of stage 2 media for an additional 3 days. These cultures were then incubated for an additional 10 days in the presence of quercetin, GSI-XX and A8301. The cultures were then fixed using formalin and stained for antibodies that recognize the proteins PDX1 and CPEP.
C-peptide staining was performed to distinguish between de novo generation of beta cells and the possible absorption of insulin from the culture media.

[4] = tested on: iPSC derivatives (insulin secreting cells); experiment: GSIS assay of bioreactor produced iPSC derivatives with cAMP agonists; settings: FIG. 39
Description: FIG. 39. Functionality of bioreactor produced insulin secreting cells occurs through cAMP agonism.
A glucose stimulated insulin secretion assay was performed to evaluate the functional maturity of the de novo beta cells generated. Assay samples had growth media removed and were washed once with PBS to remove any trace of media that may have been previously conditioned with secreted C-PEP. All samples were then incubated in the presence of basal media at 37 degrees Celsius for 15 minutes. Basal media consisted of RPMI containing 3 mM glucose. This media was then changed to either media supplemented with 17.5 mM glucose or 30 mM KCl and incubated for an additional 15 minutes.
Fully mature beta cells respond to incretins such as GLP1 through a cAMP mediated response. The iPSC derivatives are non-responsive to both GLP1 or a commonly used agonist of the GLP1 pathway EX4. It was shown that the receptor for these incretins (GLPR1) had very low expression in the iPSC-derivatives (FIG. 40). The rate of insulin secretion was also directly linked to the rate of mitochondrial respiration, as fully mature beta cells lack LDHA expression, making them only capable of metabolizing glucose through mitochondria respiration.

Cc1cccc(-c2nn(C(=S)Nc3ccccc3)cc2-c2ccnc3ccccc23)n1 [A8301]
correlation with HNF1b activation (HNF1b; iPSC line CR01, HD-DoE, FIG. 2): negative correlation
factor contribution, optimization of HNF1b (HNF1b; iPSC line CR01, HD-DoE, FIG. 2): 3.02
correlation with FOXA2 activation (FOXA2 [1]; iPSC line CR01, HD-DoE, FIG. 3): positive correlation
factor contribution, optimization of FOXA2 (FOXA2 [1]; iPSC line CR01, HD-DoE, FIG. 3): 17.72
FOXA2 activation (immunohistochemical analysis) (FOXA2 [2]): increased FOXA2 activation over RA and LDN alone
effect on INS induction (INS; heat map FIG. 21, dynamic profiling FIGS. 22-25): positive effect on INS induction, though with far less contribution

c1ccc2c(-c3cnn4cc(-c5ccc(N6CCNCC6)cc5)cnc34)ccnc2c1 [LDN193189]
effect on HNF1b expression (HNF1b; dynamic profiling, FIG. 5): crucial
factor contribution, optimization of HNF1b (HNF1b; iPSC line CR01, HD-DoE, FIG. 2): 31.26
effect on FOXA2 expression (FOXA2 [1]; dynamic profiling, FIG. 5): crucial
factor contribution, optimization of FOXA2 (FOXA2 [1]; iPSC line CR01, HD-DoE, FIG. 3): 31.11

O=C(NOC[C@H](O)CO)c1ccc(F)c(F)c1Nc1ccc(I)cc1F [PD0325901]
factor contribution, optimization of HNF1b (HNF1b; iPSC line CR01, HD-DoE, FIG. 2): 15.01
factor contribution, optimization of FOXA2 (FOXA2 [1]; iPSC line CR01, HD-DoE, FIG. 3): 29.01
FOXA2 activation (immunohistochemical analysis) (FOXA2 [2]): increased FOXA2 activation over RA and LDN alone
activation of the pancreatic field (PTF1A and PDX1), coefficient plots (PDX1; from DFE, FIG. 12): most critical to control

Cc1c(C)c(NCC(=O)N(C)C2CCN(Cc3ccc(C(N)=O)cc3)CC2)c(C)c(C)c1N [SUN11602]
factor contribution, PDX1 activation (PDX1; DFE culture, HD-DoE, FIG. 11): 4.7
effect on INS activation (INS (beta cell marker)): slightly negative effect

O=c1c(O)c(-c2ccc(O)c(O)c2)oc2cc(O)cc(O)c12 [quercetin]
contribution factor, activation of INS (INS; Example 17, three HD-DoE panels, FIG. 18): 15.6
effect on beta cell specific transcription factors / all genes optimized [3]: beneficial for all genes optimized
endocrine conversion, de novo beta cell generation (immunohistochemical analysis) (de novo beta cells): increased overall endocrine conversion

GLP1: incretin, cAMP agonist (HAEGTFTSDVSSYLEGQAAKEFIAWLVKGR; ends and bridges not checked; UniProt P01275 98-127, looked up)
increase in insulin secretion in GSIS assay [4]: did not occur

Reference: patent US20240067931A1, “METHODS AND COMPOSITIONS FOR SMALL MOLECULE BASED PANCREATIC BETA CELL INDUCTION” (Trailhead Biosystems Inc., priority 2022, published 2024)
